Reference: patent publication US9029337B2, “Modulation of factor 7 expression” (Isis Pharmaceuticals, Inc., priority 2007, dated 2015)
Strand notation (5' to 3'): a small letter for the sugar, then the base; units joined by * are phosphorothioate-linked, units joined directly phosphodiester-linked; [ ] holds rarer units or linkages, { } end groups; capitals alone tell only the bases. e = 2'-O-(2-methoxyethyl) (MOE); [5mC] = 5-methylcytosine; d = 2'-deoxy (DNA)

Test system: human Factor 7 mRNA
Test: Antisense inhibition of human Factor 7 mRNA in HepB3 cells, 50 nM antisense oligonucleotide, lipofectin
Format: cell-based
Settings: for % Inhibition: lipofectin, approximately 24 hours
Method: Antisense oligonucleotides targeted to a Factor 7 nucleic acid were tested for their effects on Factor 7 mRNA in vitro. Cultured HepB3 cells at a density of 4,000 cells per well were transfected using lipofectin reagent with 50 nM antisense oligonucleotide. After a treatment period of approximately 24 hours, RNA was isolated from the cells and Factor 7 mRNA levels were measured by real-time RT-PCR, as described herein. Factor 7 mRNA levels were adjusted according to total RNA content as measured by RIBOGREEN®. Results are presented as percent inhibition of Factor 7, relative to untreated control cells.
(§1) Antisense oligonucleotides targeted to a Factor 7 nucleic acid were designed and tested for their effects on Factor 7 mRNA in vitro. Certain antisense oligonucleotides from Table 3 were also retested for their effects on Factor 7 mRNA in vitro. Cultured HepB3 cells at a density of 4,000 cells per well were transfected using lipofectin reagent with 50 nM antisense oligonucleotide. After a treatment period of approximately 24 hours, RNA was isolated from the cells and Factor 7 mRNA levels were measured by real-time RT-PCR, as described herein. Human Factor 7 primer probe set RTS 2927 was used to measure mRNA levels. Factor 7 mRNA levels were adjusted according to total RNA content as measured by RIBOGREEN®. Results are presented as percent inhibition of Factor 7, relative to untreated control.
as §1, with “tested” for “tested for their effects on Factor 7 mRNA in vitro. Certain antisense oligonucleotides from Table 3 were also retested”
These gapmers were designed by creating gapmers shifted slightly upstream and downstream (i.e. “microwalk”) of the original gapmers from Table 7. Gapmers were also created with various motifs, e.g. 5-10-5 MOE, 3-14-3 MOE, and 2-13-5 MOE. These gapmers were tested in vitro. Cultured HepB3 cells at a density of 4,000 cells per well were transfected using lipofectin reagent with 50 nM antisense oligonucleotide. After a treatment period of approximately 24 hours, RNA was isolated from the cells and Factor 7 mRNA levels were measured by real-time RT-PCR. Factor 7 mRNA levels were adjusted according to total RNA content, as measured by RIBOGREEN®. Results are presented as percent inhibition of Factor 7, relative to untreated control cells.

[1] = 50 nM antisense oligonucleotide, Factor 7 mRNA by real-time RT-PCR (RTS 2927), relative to untreated control
[2] = oligonucleotides targeted to nucleobases 14707 to 14732 of SEQ ID NO: 1 (Table 11)
[3] = Table 1, 50 nM, relative to untreated control cells
[4] = oligonucleotides targeted to nucleobases 11830 to 11869 of SEQ ID NO: 1 (Table 9)

416565 (antisense e[5mC]*eA*eG*eG*eA*dT*dG*d[5mC]*dT*d[5mC]*dA*dT*dG*dG*d[5mC]*eA*eG*eA*e[5mC]*eA) [compound 416565]
% Inhibition [1]: 0%

422204 (antisense eG*e[5mC]*eA*dG*d[5mC]*d[5mC]*dT*dG*dA*dG*dG*d[5mC]*d[5mC]*dA*dG*d[5mC]*dA*eG*eA*eT) [compound 422204]
% Inhibition (human Factor 7 mRNA levels) [2]: 72%

407903 (antisense e[5mC]*e[5mC]*eG*e[5mC]*eG*dG*dA*dG*dA*d[5mC]*d[5mC]*dA*d[5mC]*d[5mC]*d[5mC]*eA*eG*eA*eT*eG) [compound 407903]
% Inhibition [3]: 98%

407667 (antisense eG*eT*eG*eG*e[5mC]*d[5mC]*dA*dT*dG*d[5mC]*d[5mC]*d[5mC]*dT*dG*dG*eG*eT*e[5mC]*eA*eG) [compound 407667]
% Inhibition [3]: 71%

422132 (antisense eG*e[5mC]*eA*eG*e[5mC]*d[5mC]*dT*dG*dA*dG*dG*d[5mC]*d[5mC]*dA*dG*e[5mC]*eA*eG*eA*eT) [compound 422132]
% Inhibition (human Factor 7 mRNA levels) [2]: 54%

416533 (antisense eG*e[5mC]*eA*eT*eT*d[5mC]*dT*dG*dG*dA*d[5mC]*d[5mC]*d[5mC]*dA*dG*eA*eT*eG*eA*e[5mC]) [compound 416533]
% Inhibition [1]: 41%

407916 (antisense eG*eT*eG*eG*e[5mC]*d[5mC]*d[5mC]*dA*d[5mC]*dG*dG*dT*dT*dG*d[5mC]*eG*e[5mC]*eA*eG*e[5mC]) [compound 407916]
% Inhibition [3]: 53%

422126 (antisense eA*e[5mC]*eT*eG*eA*dG*d[5mC]*dG*d[5mC]*dG*dG*dA*dA*dG*dA*eA*eG*eG*eG*eA) [compound 422126]
% Inhibition (Table 6, 50 nM): 22%

407905 (antisense e[5mC]*e[5mC]*eA*eG*eT*dT*d[5mC]*dT*dT*dG*dA*dT*dT*dT*dT*eG*eT*e[5mC]*eG*eA) [compound 407905]
% Inhibition [3]: 40%

407603 (antisense eT*eA*eA*eG*eA*dA*dA*dT*d[5mC]*d[5mC]*dA*dG*dA*dA*d[5mC]*eA*eG*e[5mC]*eT*eT) [compound 407603]
% Inhibition [3]: 54%

422167 (antisense eG*eA*eG*dG*dA*dG*dA*d[5mC]*dA*dA*dT*dG*dG*dT*d[5mC]*dA*dG*eG*eG*e[5mC]) [compound 422167]
% Inhibition (human Factor 7 mRNA levels) [4]: 53%

422185 (antisense e[5mC]*eT*eG*d[5mC]*dG*d[5mC]*d[5mC]*dA*d[5mC]*d[5mC]*d[5mC]*dG*d[5mC]*d[5mC]*dG*dG*d[5mC]*eT*e[5mC]*eT) [compound 422185]
% Inhibition (human Factor 7 mRNA levels) (oligonucleotides targeted to nucleobases 13760 to 13789 of SEQ ID NO: 1 (Table 10)): 48%

416545 (antisense eA*eG*eA*eA*eA*d[5mC]*dA*dT*d[5mC]*d[5mC]*d[5mC]*dA*dT*dT*dT*eT*e[5mC]*e[5mC]*e[5mC]*eA) [compound 416545]
% Inhibition [1]: 8%

422089 (antisense eG*eT*e[5mC]*eA*eG*dG*dG*d[5mC]*dT*dG*dG*dT*dT*dT*dT*eG*eG*eA*eG*eG) [compound 422089]
% Inhibition (human Factor 7 mRNA levels) [4]: 22%

407627 (antisense eG*e[5mC]*e[5mC]*e[5mC]*eA*dG*d[5mC]*dA*d[5mC]*d[5mC]*dG*d[5mC]*dG*dA*dT*e[5mC]*eA*eG*eG*eT) [compound 407627]
% Inhibition [3]: 79%

416536 (antisense e[5mC]*eG*eG*eG*eA*dA*dG*dG*d[5mC]*d[5mC]*dT*dG*d[5mC]*d[5mC]*d[5mC]*eT*eG*e[5mC]*eA*eG) [compound 416536]
% Inhibition [1]: 23%

422090 (antisense eG*eG*eT*e[5mC]*eA*dG*dG*dG*d[5mC]*dT*dG*dG*dT*dT*dT*eT*eG*eG*eA*eG) [compound 422090]
% Inhibition (human Factor 7 mRNA levels) [4]: 42%

407913 (antisense eG*eA*eT*eG*e[5mC]*d[5mC]*d[5mC]*dG*dT*d[5mC]*dA*dG*dG*dT*dA*e[5mC]*e[5mC]*eA*e[5mC]*eG) [compound 407913]
% Inhibition [3]: 74%

422299 (antisense eA*eG*d[5mC]*d[5mC]*d[5mC]*dG*dA*dG*dT*dT*d[5mC]*dT*dG*d[5mC]*dA*eG*eG*eA*eG*e[5mC]) [compound 422299]
% Inhibition of human Factor 7 mRNA levels (gapmers targeted to nucleobases 4868 to 4899 of SEQ ID NO: 1, Table 8): 64%
